We go through two molecules from paper PMC6328587 (Nature Communications, 2019).

Entries after “also recorded” stand apart in the source; their conditions may differ.

Experiment [1] has as its target T1, p38α:PROTAC:VHL ternary complex (Homo sapiens, UniProt P40337+Q16539).
T1 construct: The plasmid contains an N-terminal His6 tag and encodes a region spanning amino acids 2–360 of the human p38α kinase; made in house; host or cells: E. coli BL21-CodonPlus(DE3)-RIPL (p38α); E. coli BL21(DE3) (GST-VBC)
Nature of the experiment: In vitro ternary complex pull-down, GST-VBC bait, purified p38α. In kind it is binding. To be noted: all concentrations tested. As to the method: Glutathione Sepharose 4B (Glutathione-conjugated beads in a slurry containing 20% ethanol) were washed twice with 1X wash buffer (50 mM HEPES pH 7.5, 150 mM NaCl, 1 mM DTT, 0.01% NP40, 5 mM MgCl2, 10% Glycerol) and then blocked for 1 h at room temperature with 10% bovine serum albumin (BSA) in wash buffer. The beads were then washed again three times with wash buffer and then purified GST-VBC (stable form of VHL complexed with EloB/EloC, described above) was immobilized for 1 h at 4 °C at 3.6 pmole µL^–1 of beads. The beads were then washed three times with wash buffer, resuspended, divided into two equal volumes, and p38α or p38δ protein was added. The bead:p38 mixture was then aliquoted to separate tubes and PROTAC was added at the indicated concentration (PROTACs were intermediately diluted in 10% DMSO and 0.25% CHAPS). This mixture was incubated at 4 °C for 2 h. The beads were washed three times with 10 column volumes of wash buffer and then eluted with SDS loading buffer at 75 °C for 10 min.

Another experiment addresses T2, FLAG-p38α (Homo sapiens, UniProt Q16539).
T2 construct: expressed in transfected cells; host or cells: HeLa
Nature of the experiment: Ubiquitination assay, FLAG-p38α and HA-Ub in HeLa cells. Format: cell-based. The conditions noted are these: 500 nM PROTAC, 1 h. As to the method: HeLa cells (2 × 10^6) were seeded into 10 cm dishes and allowed to adhere overnight. On the following day, cells were transfected with 3 µg pcDNA5-FLAG-p38α or pcDNA5-FLAG-p38δ and 1 µg pRK5-HA-Ubiquitin-WT (Addgene plasmid #17608) in Opti-MEM media using Lipofectamine 2000 (Invitrogen). After 6 h, Opti-MEM media were replaced with DMEM (1 × ) and cells were grown for an additional 24 h. After this time, cells were treated with indicated concentrations of either vehicle (DMSO) or PROTAC for the indicated amount of time at 37 °C. Cells were then placed on ice, rinsed twice with ice-cold 1X PBS and lysed in 500 µL modified 1X RIPA buffer (25 mM Tris-HCl pH 7.6, 150 mM NaCl, 1% NP-40, 1% sodium deoxycholate, 0.1% SDS) containing 5 mM 1,10-phenanthroline monohydrate, 10 mM N-ethylmaleimide, 20 µM PR-619, and 1X protease inhibitor cocktail (Roche). Lysates were spun down at 14,000 × g at 4 °C for 20 min and protein content was measured by Pierce BCA Protein Assay (ThermoFisher Scientific). […] Immunoprecipitated protein was eluted off of the beads by heating at 95 °C for 5 min and the supernatant was run on an SDS-PAGE gel and evaluated for the presence of immunoprecipitated FLAG-tagged proteins (anti-FLAG M2, Sigma #F1804), as well as ubiquitinated FLAG-tagged proteins (anti-HA-tag (6E2), CST #2367). […]

The target in experiment [2] is T3, mutant (K220E/T221E) p38δ (Homo sapiens, UniProt O15264, K220E/T221E).
T3 construct: expressed in transfected cells; host or cells: HeLa cells, Lipofectamine 2000, pcDNA5-p38delta-K220ET221E
T3 sequence (O15264 1-365 K220E/T221E): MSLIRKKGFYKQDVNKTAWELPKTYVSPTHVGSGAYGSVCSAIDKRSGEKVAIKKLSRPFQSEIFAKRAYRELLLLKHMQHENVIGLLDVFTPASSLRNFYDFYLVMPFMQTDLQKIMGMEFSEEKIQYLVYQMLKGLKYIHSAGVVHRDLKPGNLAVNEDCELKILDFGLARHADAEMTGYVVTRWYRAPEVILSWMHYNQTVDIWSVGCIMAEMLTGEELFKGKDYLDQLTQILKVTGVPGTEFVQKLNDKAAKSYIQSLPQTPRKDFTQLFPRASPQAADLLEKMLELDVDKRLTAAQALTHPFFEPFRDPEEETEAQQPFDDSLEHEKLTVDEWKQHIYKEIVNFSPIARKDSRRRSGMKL
Nature of the experiment: Degradation of transfected mutant p38δ in HeLa cells. Format: cell-based. To be noted: 24 h. The procedure: Mutant p38δ was generated by QuikChange Lightning site-directed mutagenesis kit (Agilent). Transfections were carried out using Lipofectamine 2000 reagent (Invitrogen) in HeLa cells seeded at 3 × 10^5 cells per six well. One microgram of FLAG-containing pcDNA5-p38delta-WT or pcDNA5-p38delta-K220ET221E was used per transfection. Opti-MEM media were changed after 6 h to DMEM (1 × ), at which point the indicated compounds were added for 24 h before harvesting.

T2 sequence (Q16539 whole entry): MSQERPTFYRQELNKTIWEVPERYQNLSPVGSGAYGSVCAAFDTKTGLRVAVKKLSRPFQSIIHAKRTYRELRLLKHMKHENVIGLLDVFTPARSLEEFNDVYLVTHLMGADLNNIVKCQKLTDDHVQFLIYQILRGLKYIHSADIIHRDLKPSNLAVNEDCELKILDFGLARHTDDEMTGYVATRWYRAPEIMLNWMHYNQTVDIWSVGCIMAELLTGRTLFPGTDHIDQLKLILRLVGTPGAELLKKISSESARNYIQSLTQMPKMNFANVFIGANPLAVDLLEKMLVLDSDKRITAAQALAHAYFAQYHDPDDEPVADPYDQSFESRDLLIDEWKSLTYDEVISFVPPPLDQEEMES
T1 sequence (Q16539 2-360 limits assumed): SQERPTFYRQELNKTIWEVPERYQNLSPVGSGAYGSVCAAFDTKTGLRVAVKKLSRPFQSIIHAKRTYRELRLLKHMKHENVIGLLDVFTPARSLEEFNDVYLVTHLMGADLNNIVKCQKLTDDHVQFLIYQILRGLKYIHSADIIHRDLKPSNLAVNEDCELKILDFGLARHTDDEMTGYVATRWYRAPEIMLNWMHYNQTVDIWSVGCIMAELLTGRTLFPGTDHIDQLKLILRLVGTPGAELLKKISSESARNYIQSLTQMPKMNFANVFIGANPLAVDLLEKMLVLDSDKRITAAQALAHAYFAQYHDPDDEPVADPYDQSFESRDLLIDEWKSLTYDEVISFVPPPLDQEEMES
T1 sequence (P40337 whole entry, the tested form may be a part): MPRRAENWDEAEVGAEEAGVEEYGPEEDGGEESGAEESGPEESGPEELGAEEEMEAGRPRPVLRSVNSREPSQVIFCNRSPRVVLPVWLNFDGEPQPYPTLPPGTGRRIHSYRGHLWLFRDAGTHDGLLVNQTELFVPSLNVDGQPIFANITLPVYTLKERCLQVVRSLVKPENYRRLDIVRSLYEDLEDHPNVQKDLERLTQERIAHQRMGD
T1 sequence (Q15370 whole entry partner, the tested form may be a part): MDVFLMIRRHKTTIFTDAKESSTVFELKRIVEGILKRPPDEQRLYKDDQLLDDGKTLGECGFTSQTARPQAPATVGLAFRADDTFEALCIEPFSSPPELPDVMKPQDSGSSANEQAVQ
T1 sequence (Q15369 whole entry partner, the tested form may be a part): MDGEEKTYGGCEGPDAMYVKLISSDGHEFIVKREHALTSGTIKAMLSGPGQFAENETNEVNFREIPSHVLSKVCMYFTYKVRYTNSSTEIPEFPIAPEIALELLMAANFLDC

Regarding `COc1cc2c(Oc3ccc(NC(=O)C4(C(=O)Nc5ccc(F)cc5)CC4)cc3F)ccnc2cc1OCCCCOCCCCOCC(=O)N[C@H](C(=O)N1C[C@H](O)C[C@H]1C(=O)NCc1ccc(-c2scnc2C)cc1)C(C)(C)C` [SJFα], the “enrichment of purified p38α on GST-VBC bait” value in experiment [1] is listed as “substantial enrichment”. Besides, the “ubiquitination of FLAG-p38α” value on FLAG-p38α is recorded as “substantial, high molecular weight (HMW) poly-Ub conjugation”. Further, in experiment [2], the “degradation of double-mutant (K220E/T221E) p38δ” value is listed as “able to degrade; also recorded: potently degrades”.
As for `COc1cc2c(Oc3ccc(NC(=O)C4(C(=O)Nc5ccc(F)cc5)CC4)cc3F)ccnc2cc1OCCOCCOCCOc1cc(-c2scnc2C)ccc1CNC(=O)[C@@H]1C[C@@H](O)CN1C(=O)[C@H](C(C)C)N1Cc2ccccc2C1=O` [SJFδ], the “enrichment of purified p38α on GST-VBC bait” value in experiment [1] is “no detectable enrichment”. Also, the “ubiquitination of FLAG-p38α” value at FLAG-p38α is “this effect was not seen”. Also, the “degradation of double-mutant (K220E/T221E) p38δ” value in experiment [2] was “able to degrade”.
